Among the data in patent US20150353495A1 (PORTOLA PHARMACEUTICALS, INC., priority 2010, published 2015) are IC50 values, retold here.

Format in all cases: biochemical
The target of test [1] is T1, JAK1 (Homo sapiens, UniProt P23458).
T1 construct: 5 μl of catalytic domain recombinant Kinase enzyme+Tyr peptide substrate (Invitrogen, CA); purchased Invitrogen
Put plainly: Z'-LYTE kinase assay JAK1. Put shortly:
(§1)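 Z′-LYTE FRET, Tyr6 peptide, recombinant catalytic domain + ATP, 1 h RT, 1% DMSO final, duplicates; protease development 1 h RT; fluorescence read.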

Test [2] concerns the target T2, JAK2 (Homo sapiens, UniProt O60674).
T2 construct: 5 μl of catalytic domain recombinant Kinase enzyme+Tyr peptide substrate (Invitrogen, CA); purchased Invitrogen
Put plainly: Z'-LYTE kinase assay JAK2. Put shortly:
as §1

Test [3] deals with T3, JAK3 (Homo sapiens, UniProt P52333).
T3 construct: 5 μl of catalytic domain recombinant Kinase enzyme+Tyr peptide substrate (Invitrogen, CA); purchased Invitrogen
T3 sequence (P52333 822-1111 limits assumed): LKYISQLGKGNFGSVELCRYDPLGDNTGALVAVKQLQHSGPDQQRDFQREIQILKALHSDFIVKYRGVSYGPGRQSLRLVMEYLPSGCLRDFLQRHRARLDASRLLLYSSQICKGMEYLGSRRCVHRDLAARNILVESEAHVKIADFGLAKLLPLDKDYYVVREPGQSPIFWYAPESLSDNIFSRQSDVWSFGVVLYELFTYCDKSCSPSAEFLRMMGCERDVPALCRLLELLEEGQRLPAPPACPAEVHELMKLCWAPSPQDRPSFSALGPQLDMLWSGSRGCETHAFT
Put plainly: Z'-LYTE kinase assay JAK3. Put shortly: as §1

Test [4] addresses T4, TYK2 (Homo sapiens, UniProt P29597).
T4 construct: 5 μl of catalytic domain recombinant Kinase enzyme+Tyr peptide substrate (Invitrogen, CA); purchased Invitrogen
T4 sequence (P29597 897-1176 limits assumed): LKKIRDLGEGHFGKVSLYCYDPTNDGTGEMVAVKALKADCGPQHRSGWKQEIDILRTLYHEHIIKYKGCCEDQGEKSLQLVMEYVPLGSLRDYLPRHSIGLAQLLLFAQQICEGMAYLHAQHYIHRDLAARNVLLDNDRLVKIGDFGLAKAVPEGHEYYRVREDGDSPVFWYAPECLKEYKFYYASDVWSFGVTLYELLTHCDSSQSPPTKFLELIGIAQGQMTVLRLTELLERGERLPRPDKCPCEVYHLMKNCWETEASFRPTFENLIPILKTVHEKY
Put plainly: Z'-LYTE kinase assay TYK2. The procedure: JAK and TYK2 tyrosine phosphorylation activity is measured using the Z′-LYTE™ Technology developed by Invitrogen Corporation (Carlsbad, Calif.). For JAK1, JAK2 and JAK3 the Z′-LYTE™ Kinase Assay Kit-Tyr6 Peptide (part number PV4122) was used. For TYK2 the Z′-LYTE™ Kinase Assay Kit-Tyr6 Peptide (part number PV3192) was used. The Z′-LYTE™ biochemical assay employs a fluorescence resonance energy transfer (FRET) coupled-enzyme format and is based on the differential sensitivity of phosphorylated and non-phosphorylated peptides to proteolitic cleavage. The assay uses a synthetic peptide substrate that is labelled with a donor fluorophore (coumarin) and an acceptor fluorophore (fluorescein) that make up a FRET pair. In the primary reaction (the Kinase Reaction), the kinase transfers the γ-phosphate of ATP to a single tyrosine residue on the substrate, while the presence of a kinase inhibitor in the primary reaction suppresses phosphorylation. In the secondary reaction (the Development Reaction), a site-specific protease (the Development Reagent) is added. The development buffer quenches the Kinase Reaction, while the protease recognizes and cleaves non-phosphorylated Z′-LYTE™ peptide substrate. Cleavage disrupts FRET between the donor and acceptor fluorophores on the non-phosphoryleted substrate, while uncleaved, phosphorylated substrate maintains FRET.
To test the ability of candidate molecules to inhibit JAK tyrosine phosphorylation activity, molecules are reconstituted in 100% DMSO and serially diluted 1:10 in polypropylene v-bottom microtiter plates. The candidate molecules are then diluted 1:25 into kinase buffer and 2.5 μl transferred into duplicate wells of a 384 well low volume black microtiter assay plate (Corning, USA). The final DMSO concentration in the assay is 1%. The kinase reaction contains 2.5 μl of a candidate molecule, 5 μl of catalytic domain recombinant Kinase enzyme+Tyr peptide substrate (Invitrogen, CA) and 2.5 μl ATP (Invitrogen, CA). The kinase reaction is allowed to procede for 1 hour at room temperature. The protease reaction is initiated by the addition of 5 μl Development Reagent (Invitrogen, CA). After 1 hour incubation at room temperature the fluorescence is measured using a FlexStation plate reader (Molecular Devices, Sunnyvale, Calif.). The reader settings used are as follows: Fluorescence mode, endpoint, top read, excitation 400 nm, emission 445 nm and 520 nm, Auto Cutoff 435 nm and 515 nm, PMT sensitivity high, 6 reads per well Inhibition of JAK kinase activity is calculated as the percent phosphorylation of substrate in the presence of inhibitor compared to the percent phosphorylation of substrate in the absence of inhibitor. IC50's were derived using Xlfit 4.3 (IDBS, UK), 4 parameter logistic model 205: Y=(A+4B-A)/(1+((C/x)AD)))).

What is called IC50 is the midpoint of a concentration-inhibition curve. Higher therefore signals weaker potency in that assay.

A value given as a limit tells only on which side of the number the result lay.

T1 sequence (P23458 875-1153 limits assumed): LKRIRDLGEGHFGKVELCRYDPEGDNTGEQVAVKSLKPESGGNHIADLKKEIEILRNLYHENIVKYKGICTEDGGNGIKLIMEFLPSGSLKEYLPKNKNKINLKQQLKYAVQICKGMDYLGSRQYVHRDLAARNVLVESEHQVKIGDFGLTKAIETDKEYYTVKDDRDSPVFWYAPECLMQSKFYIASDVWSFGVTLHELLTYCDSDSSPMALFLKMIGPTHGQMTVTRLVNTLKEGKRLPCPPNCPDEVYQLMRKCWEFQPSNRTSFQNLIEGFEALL
T2 sequence (O60674 849-1124 limits assumed): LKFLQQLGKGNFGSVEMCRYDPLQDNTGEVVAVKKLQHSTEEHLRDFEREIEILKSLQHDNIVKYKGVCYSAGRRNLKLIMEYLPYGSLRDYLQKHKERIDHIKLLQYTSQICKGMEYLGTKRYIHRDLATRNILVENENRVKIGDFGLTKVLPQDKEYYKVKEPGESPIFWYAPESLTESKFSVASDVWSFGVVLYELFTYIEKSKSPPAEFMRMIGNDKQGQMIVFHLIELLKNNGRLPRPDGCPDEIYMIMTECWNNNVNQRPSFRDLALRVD

In the case of `COc1ccc(Nc2cc(Nc3ccc(N4CCOCC4)cc3)c(C(N)=O)cn2)cc1` [Example 17, 6-(4-methoxyphenylamino)-4-(4-morpholinophenylamino)nicotinamide], the IC50 in test [1] is > 1000 nM; in test [2], > 1000 nM; in test [3] it was 100 to 1000 nM; in test [4], > 1000 nM.

In the case of `Cc1cc(Nc2cc(NCc3ccccc3)c(C(N)=O)cn2)ccc1C(=O)NCCO` [Example 449, 4-(benzylamino)-6-(4-(2-hydroxyethylcarbamoyl)-3-methylphenylamino)nicotinamide], the IC50 in test [1] lay in the range of 100 to 1000 nM; in test [2], 100 to 1000 nM; in test [3], 1 to 10 nM; in test [4], 100 to 1000 nM.

As for `CC(=O)N1CCN(c2ccc(Nc3cc(NC4(c5ccccc5)CC4)c(C(N)=O)cn3)cc2)CC1` [Example 126, 6-(4-(4-acetylpiperazin-1-yl)phenylamino)-4-(1-phenylcyclopropylamino)nicotinamide], the IC50 in test [1] is > 1000 nM; in test [2], 100 to 1000 nM; in test [3], 1 to 10 nM; in test [4] it was > 1000 nM.

Consider `NC(=O)c1cnc(Nc2ccc(C3CCOCC3)cc2)cc1NCc1cccc(F)c1` [Example 143, 4-(3-fluorobenzylamino)-6-(4-(tetrahydro-2H-pyran-4-yl)phenylamino)nicotinamide], for which the 50% inhibitory concentration (IC50) in test [1] is > 1000 nM; in test [2] it was > 1000 nM; in test [3], 10 to 100 nM; in test [4], > 1000 nM.

With `CC(=O)N1CCN(c2ccc(Nc3cc(NCC(C)C)c(C(N)=O)cn3)cc2)CC1` [Example 235, 6-(4-(4-acetylpiperazin-1-yl)phenylamino)-4-(isobutylamino)nicotinamide], the IC50 is 100 to 1000 nM in test [1], 100 to 1000 nM in test [2], 10 to 100 nM in test [3] and 10 to 100 nM in test [4].

For `CC(=O)Nc1cccc(Nc2nc(NC3CCCC3)c(C(N)=O)cc2F)c1` [Example 18, 6-(3-acetamidophenylamino)-2-(cyclopentylamino)-5-fluoronicotinamide], the IC50 in test [1] is > 1000 nM; in test [2], > 1000 nM; in test [3], > 1000 nM; in test [4], 100 to 1000 nM.

Take `CCC(=O)N1CCC(c2ccc(Nc3cc(NCc4cccc(F)c4F)c(C(N)=O)cn3)cc2)CC1` [Example 196, 4-(2,3-difluorobenzylamino)-6-(4-(1-propionylpiperidin-4-yl)phenylamino)nicotinamide]: the concentration for half-maximal inhibition (IC50) in test [1] lay within 100 to 1000 nM; in test [2], 10 to 100 nM; in test [3], 1 to 10 nM; in test [4], 100 to 1000 nM.

Turning to `NC(=O)c1cnc(Nc2cccc(N3CCNCC3)c2)cc1NC1(c2ccccc2)CC1` [Example 367, 4-(1-phenylcyclopropylamino)-6-(3-(piperazin-1-yl)phenylamino)nicotinamide], the half-maximal inhibitory concentration (IC50) is > 1000 nM in test [1], 100 to 1000 nM in test [2], 10 to 100 nM in test [3] and > 1000 nM in test [4].

On to `CC(=O)N1CCN(c2ccc(Nc3cc(NCc4ccc(F)cc4)c(C(N)=O)cn3)cc2)CC1` [Example 252, 6-(4-(4-acetylpiperazin-1-yl)phenylamino)-4-(4-fluorobenzylamino)nicotinamide], for which the concentration for half-maximal inhibition (IC50) in test [1] is > 1000 nM; in test [2] it was 100 to 1000 nM; in test [3], 10 to 100 nM; in test [4], > 1000 nM.

`COCCN(C)C(=O)c1ccc(Nc2cc(NCc3ccccc3)c(C(N)=O)cn2)cc1C` [Example 453, 4-(benzylamino)-6-(4-((2-methoxyethyl)(methyl)carbamoyl)-3-methylphenylamino)nicotinamide]: the IC50 lay within 100 to 1000 nM in test [1], 10 to 100 nM in test [2], 1 to 10 nM in test [3] and 100 to 1000 nM in test [4].

On to `CC(=O)N1CCC[C@H](CNc2cc(Nc3ccc(C(=O)N(C)C)c(C)c3)ncc2C(N)=O)C1` [Example 443], for which the IC50 in test [1] was > 1000 nM; in test [2], 100 to 1000 nM; in test [3], 1 to 10 nM; in test [4], 100 to 1000 nM.

Turning to `CC(=O)N1CCC[C@H](CNc2cc(Nc3ccc(C(=O)N4CCCC4)cc3)ncc2C(N)=O)C1` [Example 265, (R)-4-((1-acetylpiperidin-3-yl)methylamino)-6-(4-(pyrrolidine-1-carbonyl)phenylamino)nicotinamide], the IC50 in test [1] was > 1000 nM; in test [2], 100 to 1000 nM; in test [3], 10 to 100 nM; in test [4], 100 to 1000 nM.

Consider `NC(=O)c1cnc(Nc2cccc(OCCN3CCCC3)c2)cc1NC1(c2ccccc2)CC1` [Example 363, 4-(1-phenylcyclopropylamino)-6-(3-(2-(pyrrolidin-1-yl)ethoxy)phenylamino)nicotinamide], for which the IC50 was > 1000 nM in test [1], 100 to 1000 nM in test [2], 10 to 100 nM in test [3] and > 1000 nM in test [4].

Consider `NC(=O)c1cnc(Nc2ccc(N3CCOCC3)cc2)c(Cl)c1NCc1cccc(F)c1` [Example 377, 5-chloro-4-(3-fluorobenzylamino)-6-(4-morpholinophenylamino)nicotinamide], for which the IC50 was > 1000 nM in test [1], > 1000 nM in test [2], 100 to 1000 nM in test [3] and > 1000 nM in test [4].

`CC(=O)N1CCN(c2ccc(Nc3cc(NC4Cc5ccccc5C4)c(C(N)=O)cn3)cc2)CC1` [Example 253, 6-(4-(4-acetylpiperazin-1-yl)phenylamino)-4-(2,3-dihydro-1H-inden-2-ylamino)nicotinamide]: the IC50 in test [1] is > 1000 nM; in test [2], 100 to 1000 nM; in test [3], 100 to 1000 nM; in test [4], 100 to 1000 nM.

As to `CC(=O)Nc1cccc(Nc2nc(NCc3ccccc3)c(C(N)=O)cc2F)c1` [Example 19, 6-(3-acetamidophenylamino)-2-(benzylamino)-5-fluoronicotinamide], the 50% inhibitory concentration (IC50) in test [1], in test [2], in test [3] and in test [4] was > 1000 nM each time.

Regarding `CN(C)C(=O)COc1cccc(Nc2cc(NC3(c4ccccc4)CC3)c(C(N)=O)cn2)c1` [Example 365, 6-(3-(2-(dimethylamino)-2-oxoethoxy)phenylamino)-4-(1-phenylcyclopropylamino)nicotinamide], the half-maximal inhibitory concentration (IC50) in test [1] is > 1000 nM; in test [2] it was > 1000 nM; in test [3], 10 to 100 nM; in test [4] it was > 1000 nM.

As to `CCC(=O)N1CCC(c2ccc(Nc3cc(NCC4(O)CCCC4)c(C(N)=O)cn3)cc2)CC1` [Example 193, 4-((1-hydroxycyclopentyl)methylamino)-6-(4-(1-propionylpiperidin-4-yl)phenylamino)nicotinamide], the IC50 is > 1000 nM in test [1], 100 to 1000 nM in test [2], 10 to 100 nM in test [3] and 100 to 1000 nM in test [4].

In the case of `CC(=O)N1CCN(c2ccc(Nc3cc(NC(C)C)c(C(N)=O)cn3)cc2)CC1` [Example 234, 6-(4-(4-acetylpiperazin-1-yl)phenylamino)-4-(isopropylamino)nicotinamide], the IC50 was > 1000 nM in test [1], > 1000 nM in test [2], 100 to 1000 nM in test [3] and 100 to 1000 nM in test [4].

Take `C[C@@H](Nc1nc(Nc2ccc(OCCN3CCCC3)cc2)c(F)cc1C(N)=O)c1ccccc1` [Example 27, (R)-5-fluoro-2-(1-phenylethylamino)-6-(4-(2-(pyrrolidin-1-yl)ethoxy)phenylamino)nicotinamide]: the IC50 in test [1], in test [2], in test [3] and in test [4] was > 1000 nM throughout.
